Assay results: patent US8592395B2, “Therapeutic compounds” (GlaxoSmithKline LLC, priority 2009, dated 2013)

Test system: HIV
Assay: HOS assay (HOS-Luc HIV-1 LTR-luciferase reporter antiviral assay)
Format: cell-based
Conditions: Human immunodeficiency virus 1, 96 h; HOS-Luc cells (HOS-CD4.CCR5 with HIV-1 LTR-luciferase reporter), four-day incubation with virus, luciferase readout
Description: HOS-Luc cells were created by introducing an HIV-1 LTR-luciferase reporter into HOS-CD4.CCR5 (NIH AIDS Research and Reference Reagents Program, cat. #3318). The cells were propagated in DMEM complete medium. Cells were split 1:20 by standard trypsinization when confluency reached 80% (roughly every 2 to 3 days).
Black-walled 96-well tissue culture plates were seeded with HOS-Luc at 6×10^3 cells per well in 50 μL DMEM containing 2% FBS and placed in a humidified incubator at 37° C., 5% CO2 overnight. The following day, test compounds were serially diluted in 4-fold increments at 2× the final concentration in DMEM+2% FBS+0.2% DMSO. Diluted compound (50 μL) was transferred to the HOS-Luc cells and the plates were placed in a humidified incubator at 37° C., 5% CO2 for 1 hr. An additional 60 μL of 2× compound was transferred to a clear-walled 96-well tissue culture plate and 60 μL of virus (diluted 1:50 in tissue culture media) was added to each well and thoroughly mixed. The virus input was previously determined by titrating the virus under assay conditions without compound and selecting a dilution that gives a response in the linear range of the curve and a signal to background of at least 30. The HIV/compound mixture (100 μL) was transferred to the black-walled plates containing 100 μL of cells/compound. The plates were placed in a humidified incubator at 37° C., 5% CO2 for four days. Following the four-day incubation, 150 μL of supernatant was removed and 50 μL of reconstituted Luclite (Promega) was added to each well. For cytotoxicity assessment, 50 μL of reconstituted CellTiter-GLo (Promega) was added to each well. Each plate was topsealed and read in a Topcount (Packard) luminometer at 1 s/well.
Raw data from the HOS-Luc assay were expressed as Relative Light Units (RLU) and normalized according to the following formula: (RLU at drug [ ]/RLU no drug)*100=% control
The potency of test compounds are reported as IC50 values derived from the four parameter Hill equation, defined as: y=Vmax*(1−(x^n/(K^n+x^n)))+Y2 Where:
y=normalized response data
Vmax=upper bound of response
Y2=lower bound or baseline of response

Compound | IC50
Cc1nc2ccccc2n1[C@H]1C[C@H]2CC[C@@H](C1)N2CCC(CNS(=O)(=O)c1ccccc1)c1ccccc1 (stereo partly drawn) [Example 1, N-{4-[(1R,5S)-3-(2-methyl-1H-benzimidazol-1-yl)-8-azabicyclo[3.2.1]oct-8-yl]-2-phenylbutyl}] | 10 to 100 nM
Cc1nc2ccccc2n1[C@H]1C[C@H]2CC[C@@H](C1)N2CCC(CN(C)S(=O)(=O)c1ccccc1)c1ccccc1 (stereo partly drawn) [Example 2, N-methyl-N-{4-[(1R,5S)-3-(2-methyl-1H-benzimidazol-1-yl)-8-azabicyclo[3.2.1]oct-8-yl]-2-phenylbutyl}benzenesulfonamide] | < 10 nM
Cc1nc2ccccc2n1[C@H]1C[C@H]2CC[C@@H](C1)N2CCC(CNS(=O)(=O)c1cccc(C#N)c1)c1ccccc1 (stereo partly drawn) [Example 3, 3-cyano-N-{4-[(1R,5S)-3-(2-methyl-1H-benzimidazol-1-yl)-8-azabicyclo[3.2.1]oct-8-yl]-2-phenylbutyl}benzenesulfonamide] | 10 to 100 nM
Cc1nc2ccccc2n1[C@H]1C[C@H]2CC[C@@H](C1)N2CCC(CNS(=O)(=O)c1ccc(C#N)cc1)c1ccccc1 (stereo partly drawn) [Example 4, 4-cyano-N-{4-[(1R,5S)-3-(2-methyl-1H-benzimidazol-1-yl)-8-azabicyclo[3.2.1]oct-8-yl]-2-phenylbutyl}benzenesulfonamide] | 10 to 100 nM
Cc1nc2ccccc2n1[C@H]1C[C@H]2CC[C@@H](C1)N2CCC(CNS(C)(=O)=O)c1ccccc1 (stereo partly drawn) [Example 5, N-{4-[(1R,5S)-3-(2-methyl-1H-benzimidazol-1-yl)-8-azabicyclo[3.2.1]oct-8-yl]-2-phenylbutyl}methanesulfonamide] | 10 to 100 nM
Cc1nc2ccccc2n1[C@H]1C[C@H]2CC[C@@H](C1)N2CCC(CNS(=O)(=O)c1cccc(C(N)=O)c1)c1ccccc1 (stereo partly drawn) [Example 6, 3-[({4-[(1R,5S)-3-(2-methyl-1H-benzimidazol-1-yl)-8-azabicyclo[3.2.1]oct-8-yl]-2-phenylbutyl}amino)sulfonyl]benzamide] | 10 to 100 nM
Cc1nc2ccccc2n1[C@H]1C[C@H]2CC[C@@H](C1)N2CCC(CNS(=O)(=O)c1ccc2[nH]c(=O)oc2c1)c1ccccc1 (stereo partly drawn) [Example 7] | 10 to 100 nM
Cc1nc2ccccc2n1C1C[C@H]2CC[C@@H](C1)N2CCC(CNS(=O)(=O)c1ccc(C(N)=O)cc1)c1ccccc1 (stereo partly drawn) [Example 8, 4-[({4-[(1R,5S)-3-(2-methyl-1H-benzimidazol-1-yl)-8-azabicyclo[3.2.1]oct-8-yl]-2-phenylbutyl}amino)sulfonyl]benzamide] | 10 to 100 nM
COP(=O)(NCC(CCN1[C@@H]2CC[C@H]1C[C@@H](n1c(C)nc3ccccc31)C2)c1ccccc1)OC (stereo partly drawn) [Example 9, dimethyl{4-[(1R,5S)-3-(2-methyl-1H-benzimidazol-1-yl)-8-azabicyclo[3.2.1]oct-8-yl]-2-phenylbutyl}amidophosphate] | 10 to 100 nM
Cc1nc2ccccc2n1[C@H]1C[C@H]2CC[C@@H](C1)N2CCC(CNS(=O)(=O)CC(F)(F)F)c1ccccc1 (stereo partly drawn) [Example 10, 2,2,2-trifluoro-N-{4-[(1R,5S)-3-(2-methyl-1H-benzimidazol-1-yl)-8-azabicyclo[3.2.1]oct-8-yl]-2-phenylbutyl}ethanesulfonamide] | 10 to 100 nM
Cc1nc2ccncc2n1[C@H]1C[C@H]2CC[C@@H](C1)N2CCC(CNS(=O)(=O)c1ccccc1)c1ccccc1 (stereo partly drawn) [Example 11, N-{4-[(1R,5S)-3-(2-methyl-3H-imidazo[4,5-c]pyridin-3-yl)-8-azabicyclo[3.2.1]oct-8-yl]-2-phenylbutyl}benzenesulfonamide] | 10 to 100 nM
Cc1nc2ccccc2n1[C@H]1C[C@H]2CC[C@@H](C1)N2CCC(CNS(=O)(=O)N1CCOCC1)c1ccccc1 (stereo partly drawn) [Example 12, N-{4-[(1R,5S)-3-(2-methyl-1H-benzimidazol-1-yl)-8-azabicyclo[3.2.1]oct-8-yl]-2-phenylbutyl}-4-mopholinesulfonamide] | 10 to 100 nM
CC(=O)N1CCc2nc(C)n([C@H]3C[C@H]4CC[C@@H](C3)N4CCC(CNS(=O)(=O)c3ccccc3)c3ccccc3)c2C1 (stereo partly drawn) [Example 13, N-{4-[(1R,5S)-3-(5-acetyl-2-methyl-4,5,6,7-tetrahydro-3H-imidazo[4,5-c]pyridin-3-yl)-8-azabicyclo[3.2.1]oct-8-yl]-2-phenylbutyl}benzenesulfonamide] | < 10 nM
Cc1nc2ccccc2n1[C@H]1C[C@H]2CC[C@@H](C1)N2CCC(CNS(=O)(=O)NC1CCC1)c1ccccc1 (stereo partly drawn) [Example 14, N-cyclobutyl-N′-{4-[(1R,5S)-3-(2-methyl-1H-benzimidazol-1-yl)-8-azabicyclo[3.2.1]oct-8-yl]-2-phenylbutyl}sulfamide] | 10 to 100 nM
Cc1nc2ccccc2n1[C@H]1C[C@H]2CC[C@@H](C1)N2CCC(CNS(=O)(=O)NC1CCC(F)(F)CC1)c1ccccc1 (stereo partly drawn) [Example 15, N-(4,4-difluorocyclohexyl)-N′-{4-[(1R,5S)-3-(2-methyl-1H-benzimidazol-1-yl)-8-azabicyclo[3.2.1]oct-8-yl]-2-phenylbutyl}sulfamide] | 10 to 100 nM
Cc1nnc(C(C)C)n1[C@H]1C[C@H]2CC[C@@H](C1)N2CCC(CNC(=O)C1CCC(F)(F)CC1)c1ccccc1 (stereo partly drawn) [Example 16, 4,4-difluoro-N-(4-{(1R,5S)-3-[3-methyl-5-(1-methylethyl)-4H-1,2,4-triazol-4-yl]-8-azabicyclo[3.2.1]oct-8-yl}-2-phenylbutyl)cyclohexanecarboxamide] | 100 to 1000 nM
Cc1nnc(C(C)C)n1[C@H]1C[C@H]2CC[C@@H](C1)N2CCC(CNS(=O)(=O)c1ccccc1)c1ccccc1 (stereo partly drawn) [Example 17, N-(4-{(1R,5S)-3-[3-methyl-5-(1-methylethyl)-4H-1,2,4-triazol-4-yl]-8-azabicyclo[3.2.1]oct-8-yl}-2-phenylbutyl)benzenesulfonamide] | 100 to 1000 nM
Cc1nnc(C(C)C)n1[C@H]1C[C@H]2CC[C@@H](C1)N2CCC(CNC(=O)C1CC(F)(F)C1)c1ccccc1 (stereo partly drawn) [Example 18, 3,3-difluoro-N-(4-{(1R,5S)-3-[3-methyl-5-(1-methylethyl)-4H-1,2,4-triazol-4-yl]-8-azabicyclo[3.2.1]oct-8-yl}-2-phenylbutyl)cyclobutanecarboxamide] | 100 to 1000 nM
Cc1nc2ccccc2n1[C@H]1C[C@H]2CC[C@@H](C1)N2CCC(C)(CNS(=O)(=O)c1ccccc1)c1ccccc1 (stereo partly drawn) [Example 19, N-{2-methyl-4-[(1R,5S)-3-(2-methyl-1H-benzimidazol-1-yl)-8-azabicyclo[3.2.1]oct-8-yl]-2-phenylbutyl}benzenesulfonamide] | 100 to 1000 nM
Cc1nc2ccccc2n1[C@H]1C[C@H]2CC[C@@H](C1)N2CCC(C)(CN(C)S(=O)(=O)c1ccccc1)c1ccccc1 (stereo partly drawn) [Example 20, N-methyl-N-{2-methyl-4-[(1R,5S)-3-(2-methyl-1H-benzimidazol-1-yl)-8-azabicyclo[3.2.1]oct-8-yl]-2-phenylbutyl}benzenesulfonamide] | < 10 nM
Cc1nc2ccccc2n1[C@H]1C[C@H]2CC[C@@H](C1)N2CCC(C)(CNC(=O)C1CCC(F)(F)CC1)c1ccccc1 (stereo partly drawn) [Example 21, 4,4-difluoro-N-{2-methyl-4-[(1R,5S)-3-(2-methyl-1H-benzimidazol-1-yl)-8-azabicyclo[3.2.1]oct-8-yl]-2-phenylbutyl}cyclohexanecarboxamide] | 100 to 1000 nM
Cc1nc2ccccc2n1[C@H]1C[C@H]2CC[C@@H](C1)N2CCC(C)(CN(C)C(=O)C1CCC(F)(F)CC1)c1ccccc1 (stereo partly drawn) [Example 22, 4,4-difluoro-N-methyl-N-{2-methyl-4-[(1R,5S)-3-(2-methyl-1H-benzimidazol-1-yl)-8-azabicyclo[3.2.1]oct-8-yl]-2-phenylbutyl}cyclohexanecarboxamide] | 100 to 1000 nM
Cc1nnc(C(C)C)n1[C@@H]1C[C@H]2CC[C@@H](C1)N2CCC(C)(CNC(=O)C1CCC(F)(F)CC1)c1ccccc1 (stereo partly drawn) [Example 23, 4,4-difluoro-N-(2-methyl-4-{(1R,5S)-3-[3-methyl-5-(1-methylethyl)-4H-1,2,4-triazol-4-yl]-8-azabicyclo[3.2.1]oct-8-yl}-2-phenylbutyl)cyclohexanecarboxamide] | 100 to 1000 nM
Cc1nnc(C(C)C)n1[C@@H]1C[C@H]2CC[C@@H](C1)N2CCC(C)(CNS(=O)(=O)c1ccccc1)c1ccccc1 (stereo partly drawn) [Example 24, N-(2-methyl-4-{(1R,5S)-3-[3-methyl-5-(1-methylethyl)-4H-1,2,4-triazol-4-yl]-8-azabicyclo[3.2.1]oct-8-yl}-2-phenylbutyl)benzenesulfonamide] | 100 to 1000 nM
